Type in all cases: cell-based
Series [1] has as its target recombinant perforin (UniProt P10820). Particulars: read-out: Jurkat IC50; recombinant perforin pre-incubated 30 min with compound; 51Cr-labelled Jurkat cells, 0.1% BSA, 37° C. 4 hours. Here is the method: Inhibition of Perforin-Mediated Lysis of Jurkat Cells
The ability of the compounds to inhibit the lysis of nucleated (Jurkat T lymphoma) cells in the presence of 0.1% BSA, as measured by release of ^51Cr was measured. Jurkat target cells were labelled by incubation in medium with 100 μCi ^51Cr for one hour. The cells were then washed three times to remove unincorporated isotope and re-suspended at 1×10^5 cells per mL in RPMI buffer supplemented with 0.1% BSA. […] The supernatant was collected and assessed for its radioactive content on a gamma counter (Wallac Wizard 1470 automatic gamma counter). Each data point was performed in triplicate and an IC50 was calculated from the range of concentrations described to above.

For series [2], the system named is KHYG-1 NK cell-mediated lysis of K562 cells. The series is described as follows: Inhibition of KHYG-1 NK cell-mediated lysis of K562 cells (51Cr release). Particulars: K562 target cells, Effector:Target 2:1, 4 hours 37° C. On the procedure:
Inhibition of KHYG-1 NK Cell-Mediated lysis of K562 Cells
KHYG-1 cells were washed and resuspended in RPMI+0.1% BSA at 4×10^5 cells/ml and 50 μl of KHYG-1 cells were dispensed to each well of a 96-well V-bottom, plate. Test compounds were added to KHYG-1 cells at various concentrations up to 20 μM and incubated at RT for 20 minutes. 1×10^6 K562 target cells were labelled with 75 μCi ^51Cr in 200 μl RPMI for 90 mins at 37° C., cells were washed as described above and resuspended in 5 ml RPMI+0.1% BSA. 50 μl of ^51Cr labelled K562 leukemia target cells were added to each well of the KHYG-1 plate (Effector:Target 2:1) and incubated at 37° C. for 4 hours. ^51Cr release was assayed using a Skatron Harvesting Press and radioactivity estimated on a Wallac Wizard 1470 Automatic Gamma counter (Turku, Finland). The percentage of specific cytotoxicity was calculated by the formula: […]
and expressed as the mean of triplicate assays +/−standard error of the mean.

The test system of series [3] is KHYG-1 NK cells. As to the kind of experiment: Toxicity to KHYG-1 NK cells (trypan blue viability). The settings on record: viable cells as percentage of total (% viability), 18 to 24 hours. Here is the method:
Toxicity to KHYG-1 NK Cells
KHYG-1 cells were washed and resuspended in RPMI+0.1% BSA at 4×10^5 cells/ml and 50 μl of KHYG-1 cells were dispensed to each well of a 96-well V-bottom plate. Test compounds were added to KHYG-1 cells at a concentration of 20 μM and incubated at RT for 20 minutes. 100 μL of RPMI 0.1% BSA was added and the cells were incubated for 4 hours at 37° C. then washed ×3 in RPMI+0.1% BSA. Cells were then resuspended in 200 μl of complete medium and incubated for 18 to 24 hours at 37° C. Trypan blue was added to each well and viable (clear) cells counted as a percentage of total (clear+blue) cell number (% viability).

recombinant perforin, sequence (P10820 whole entry): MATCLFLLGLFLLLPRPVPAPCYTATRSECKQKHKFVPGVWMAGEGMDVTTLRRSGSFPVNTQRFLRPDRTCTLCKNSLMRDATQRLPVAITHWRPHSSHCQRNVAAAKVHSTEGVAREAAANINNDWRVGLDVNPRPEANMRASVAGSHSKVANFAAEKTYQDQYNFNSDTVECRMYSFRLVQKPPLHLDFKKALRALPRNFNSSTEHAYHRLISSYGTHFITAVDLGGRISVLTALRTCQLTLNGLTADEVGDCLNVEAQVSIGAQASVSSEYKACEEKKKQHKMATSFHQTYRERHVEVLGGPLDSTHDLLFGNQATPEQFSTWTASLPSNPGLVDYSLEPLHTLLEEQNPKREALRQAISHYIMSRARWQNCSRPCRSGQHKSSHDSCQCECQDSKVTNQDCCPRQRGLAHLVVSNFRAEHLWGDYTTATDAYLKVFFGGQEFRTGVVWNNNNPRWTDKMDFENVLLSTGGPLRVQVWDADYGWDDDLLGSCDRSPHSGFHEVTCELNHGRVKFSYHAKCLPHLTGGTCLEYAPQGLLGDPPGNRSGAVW

Consider `O=C1NC(=S)N/C1=C/c1ccc(-c2ccc(C(=O)NCC(O)CO)cc2)s1` (stereo not drawn) [Cmpd 40, (E,Z)-N-(2,3-Dihydroxypropyl)-4-(5-((5-oxo-2-thioxoimidazolidin-4-ylidene)methyl)thiophen-2-yl)benzamide], for which the IC50 in series [1] stood at 2.44 µM. The compound further had an inhibition at 20 µM in series [2] of 47%. The “percent viable KHYG-1 cells (trypan blue) at 20 μM” value (from here on “percent viable KHYG-1 cells”) in series [3] amounted to 82%.

For `CSc1ccc(-c2ccc(/C=C3/NC(=S)NC3=O)s2)cc1` [Cmpd 27], the half-maximal inhibitory concentration (IC50) in series [1] amounted to 1.15 µM. In series [2], at 20 µM the inhibition was 43%. Also, the “percent viable KHYG-1 cells” value in series [3] is given as 83%.

On to `O=C1NC(=S)N/C1=C/c1ccc(-c2cccc(Cl)c2)s1` [Cmpd 23, (E,Z)-5-((5-(3-Chlorophenyl)thiophen-2-yl)methylene)-2-thioxoimidazolidin-4-one], for which the 50% inhibitory concentration (IC50) in series [1] was 7.19 µM. In series [2], this compound registered an inhibition at 20 µM of 92%. In addition, the “percent viable KHYG-1 cells” value in series [3] was 55%.

Take `O=C1NC(=S)N/C1=C/c1ccc(-c2ccc3c(c2)CN(CCCN2CCCCC2)C3=O)s1` [Cmpd 75, (E,Z)-5-(5-((5-Oxo-2-thioxoimidazolidin-4-ylidene)methyl)thiophen-2-yl)-2-(3-(piperidin-1-yl)propyl)isoindolin-1-one]: in series [1], the half-maximal inhibitory concentration (IC50) worked out at 11.8 µM. Also, the inhibition at 20 µM in series [2] is 61%. The “percent viable KHYG-1 cells” value in series [3] was determined as 85%.

With `O=C1NC(=S)N/C1=C/c1ccc(-c2ccc3c(c2)CN(CCO)C3=O)s1` [Cmpd 70, (E,Z)-2-(2-Hydroxyethyl)-5-(5-((5-oxo-2-thioxoimidazolidin-4-ylidene)methyl)thiophen-2-yl)isoindolin-1-one], the IC50 in series [1] is 0.78 µM. In series [2], this compound gave an inhibition at 20 µM of 38%. Besides, the “percent viable KHYG-1 cells” value in series [3] amounted to 77%.

On to `O=C1NC(=S)N/C1=C\c1ccc(-c2ccc3c(c2)CCNC3=O)s1` [Cmpd 82, (E,Z)-6-(5-((5-Oxo-2-thioxoimidazolidin-4-ylidene)methyl)thiophen-2-yl)-3,4-dihydroisoquinolin-1(2H)-one], for which the IC50 in series [1] came to 1.14 µM. In series [2], this compound came in with an inhibition at 20 µM of 92%. Moreover, in series [3], the “percent viable KHYG-1 cells” value stood at 80%.

As for `O=C1NC(=S)N/C1=C/c1ccc(-c2ccc(Br)cc2)s1` [Cmpd 32, (E,Z)-5-((5-(4-Bromophenyl)thiophen-2-yl)methylene)-2-thioxoimidazolidin-4-one], in series [1], the IC50 came out at 1.69 µM. The compound also yielded an inhibition at 20 µM in series [2] of 66%. Besides, the “percent viable KHYG-1 cells” value in series [3] came out at 83%.

With `O=C1NC(=S)N/C1=C/c1ccc(-c2ccc3c(c2)CN(CCCO)C3=O)s1` [Cmpd 71, (E,Z)-2-(3-Hydroxypropyl)-5-(5-((5-oxo-2-thioxoimidazolidin-4-ylidene)methyl)thiophen-2-yl)isoindolin-1-one], the half-maximal inhibitory concentration (IC50) in series [1] is 0.53 µM. In series [2], this compound returned an inhibition at 20 µM of 62%. The “percent viable KHYG-1 cells” value in series [3] was 88%.

`CNC(=O)c1ccc(-c2ccc(/C=C3/NC(=S)NC3=O)s2)cc1` [Cmpd 38, (E,Z)-N-Methyl-4-(5-((5-oxo-2-thioxoimidazolidin-4-ylidene)methyl)thiophen-2-yl)benzamide]: the IC50 in series [1] turned out to be 4.53 µM. Moreover, at 20 µM the inhibition in series [2] was 49%. Further, the “percent viable KHYG-1 cells” value in series [3] came out at 97%.

As for `CC(=O)c1ccc(-c2ccc(/C=C3/NC(=S)NC3=O)s2)cc1` [Cmpd 20, (E,Z)-5-((5-(4-Acetylphenyl)thiophen-2-yl)methylene)-2-thioxoimidazolidin-4-one], the concentration for half-maximal inhibition (IC50) in series [1] turned out to be 1.67 µM. Moreover, the inhibition at 20 µM in series [2] worked out at 90%. The “percent viable KHYG-1 cells” value in series [3] worked out at 100%.

For the compound `O=C1NC(=S)N/C1=C/c1ccc(-c2ccc(Cl)cc2)s1` [Cmpd 24, (E,Z)-5-((5-(4-Chlorophenyl)thiophen-2-yl)methylene)-2-thioxoimidazolidin-4-one], the concentration for half-maximal inhibition (IC50) in series [1] worked out at 5.22 µM. In series [2], the inhibition at 20 µM came out at 59%. Further, in series [3], the “percent viable KHYG-1 cells” value worked out at 89%.

For `CC(C)N1Cc2cc(-c3ccc(/C=C4/NC(=S)NC4=O)s3)ccc2C1=O` [Cmpd 52, (E,Z)-2-Isopropyl-5-(5-((5-oxo-2-thioxoimidazolidin-4-ylidene)methyl)thiophen-2-yl)isoindolin-1-one], the 50% inhibitory concentration (IC50) in series [1] was 4.42 µM. Moreover, the inhibition at 20 µM in series [2] worked out at 77%. Besides, in series [3], the “percent viable KHYG-1 cells” value is recorded as 92%.

Regarding `O=C1NC(=S)N/C1=C/c1ccc(-c2ccc(O)cc2)s1` [Cmpd 35, (E,Z)-5-((5-(4-Hydroxyphenyl)thiophen-2-yl)methylene)-2-thioxoimidazolidin-4-one], the half-maximal inhibitory concentration (IC50) in series [1] is 7.72 µM. The compound further gave an inhibition at 20 µM in series [2] of 90%. Besides, the “percent viable KHYG-1 cells” value in series [3] was found to be 93%.

Turning to `CC(=O)OCCN1Cc2cc(-c3ccc(/C=C4/NC(=S)NC4=O)s3)ccc2C1=O` [Cmpd 68, (E,Z)-2-(1-Oxo-5-(5-((5-oxo-2-thioxoimidazolidin-4-ylidene)methyl)thiophen-2-yl)isoindolin-2-yl)ethyl acetate], the IC50 in series [1] was 1.17 µM. The inhibition at 20 µM in series [2] was determined as 86%. The “percent viable KHYG-1 cells” value in series [3] was 84%.

In the case of `O=C1NC(=S)N/C1=C\c1ccc(-c2ccc3c(c2)CNC3=O)cn1` [Cmpd 51, (E,Z)-5-(6((5-Oxo-2-thioxoimidazolidin-4-ylidene)methyl)pyridin-3-yl)isoindolin-1-one], the IC50 in series [1] stood at 0.63 µM. Further, in series [2], testing at 20 µM gave an inhibition of 19%. Besides, the “percent viable KHYG-1 cells” value in series [3] is reported as 97%.

As to `COC(=O)c1ccc(-c2ccc(/C=C3/NC(=S)NC3=O)s2)cc1` [Cmpd 19, (E,Z)-Methyl 4-(5-((5-oxo-2-thioxoimidazolidin-4-ylidene)methyl)thiophen-2-yl)benzoate], in series [1], the IC50 came out at 1.62 µM. The compound also had an inhibition at 20 µM in series [2] of 30%. Further, in series [3], the “percent viable KHYG-1 cells” value came out at 95%.

As to `CC(=O)N1Cc2cc(-c3ccc(/C=C4/NC(=S)NC4=O)s3)ccc2C1=O` [Cmpd 66, (E,Z)-2-Acetyl-5-(5-((5-oxo-2-thioxoimidazolidin-4-ylidene)methyl)thiophen-2-yl)isoindolin-1-one], in series [1], the IC50 stood at 0.93 µM. Further, the inhibition at 20 µM in series [2] stood at 49%. The “percent viable KHYG-1 cells” value in series [3] is 85%.

`CN1Cc2ccc(-c3ccc(/C=C4/NC(=S)NC4=O)s3)cc2C1=O` [Cmpd 73, (E,Z)-2-Methyl-6-(5-((5-oxo-2-thioxoimidazolidin-4-ylidene)methyl)thiophen-2-yl)isoindolin-1-one]: the IC50 in series [1] is 1.89 µM. The compound further returned an inhibition at 20 µM in series [2] of 60%. In series [3], the “percent viable KHYG-1 cells” value came to 85%.

Consider `CCCN1Cc2cc(-c3ccc(/C=C4/NC(=S)NC4=O)s3)ccc2C1=O` [Cmpd 63, (E,Z)-5-(5-((5-Oxo-2-thioxoimidazolidin-4-ylidene)methyl)thiophen-2-yl)-2-propylisoindolin-1-one], for which the IC50 in series [1] came out at 1.52 µM. Moreover, at 20 µM the inhibition in series [2] was 95%. Also, the “percent viable KHYG-1 cells” value in series [3] is listed as 94%.

In the case of `CCCCN1Cc2cc(-c3ccc(/C=C4/NC(=S)NC4=O)s3)ccc2C1=O` [Cmpd 64, (E,Z)-2-Butyl-5-(5-((5-oxo-2-thioxoimidazolidin-4-ylidene)methyl)thiophen-2-yl)isoindolin-1-one], the concentration for half-maximal inhibition (IC50) in series [1] is 0.99 µM. In series [2], this compound gave an inhibition at 20 µM of 96%. Further, the “percent viable KHYG-1 cells” value in series [3] was 94%.

Take `O=C1NC(=S)N/C1=C/c1ccc(-c2ccc3c(c2)CNC3=O)s1` [Cmpd 46, (E,Z)-5-(5-((5-Oxo-2-thioxoimidazolidin-4-ylidene)methyl)thiophen-2-yl)isoindolin-1-one]: the concentration for half-maximal inhibition (IC50) in series [1] worked out at 2.55 µM. For the same compound, the inhibition at 20 µM in series [2] came to 70%. Besides, the “percent viable KHYG-1 cells” value in series [3] is 98%.

Take `CN(C)C(=O)c1ccc(-c2ccc(/C=C3/NC(=S)NC3=O)s2)cc1` [Cmpd 39, (E,Z)-N,N-Dimethyl-4-(5-((5-oxo-2-thioxoimidazolidin-4-ylidene)methyl)thiophen-2-yl)benzamide]: in series [1], the concentration for half-maximal inhibition (IC50) worked out at 6.93 µM. In series [2], the inhibition at 20 µM worked out at 89%. The “percent viable KHYG-1 cells” value in series [3] worked out at 95%.

The values are drawn from patent US20130065897A1, “COMPOUNDS, PREPARATION AND USES THEREOF” (PETER MACCALLUM CANCER INSTITUTE, priority 2009, published 2013).
